Measurements from US20240217967A1, “INDOLINE DERIVATIVES AS DDRS INHIBITORS” (CHIESI FARMACEUTICI S.P.A., priority 2021, published 2024).

What was measured:
DDR2 = molecular target: T1, DDR2 (Homo sapiens, UniProt Q16832); assay: DDR2 LanthaScreen Europium Kinase Binding assay; settings: binding affinity; IC50 converted in Ki using Cheng-Prusoff; read-out: Ki DDR2
T1 sequence (Q16832 22-855): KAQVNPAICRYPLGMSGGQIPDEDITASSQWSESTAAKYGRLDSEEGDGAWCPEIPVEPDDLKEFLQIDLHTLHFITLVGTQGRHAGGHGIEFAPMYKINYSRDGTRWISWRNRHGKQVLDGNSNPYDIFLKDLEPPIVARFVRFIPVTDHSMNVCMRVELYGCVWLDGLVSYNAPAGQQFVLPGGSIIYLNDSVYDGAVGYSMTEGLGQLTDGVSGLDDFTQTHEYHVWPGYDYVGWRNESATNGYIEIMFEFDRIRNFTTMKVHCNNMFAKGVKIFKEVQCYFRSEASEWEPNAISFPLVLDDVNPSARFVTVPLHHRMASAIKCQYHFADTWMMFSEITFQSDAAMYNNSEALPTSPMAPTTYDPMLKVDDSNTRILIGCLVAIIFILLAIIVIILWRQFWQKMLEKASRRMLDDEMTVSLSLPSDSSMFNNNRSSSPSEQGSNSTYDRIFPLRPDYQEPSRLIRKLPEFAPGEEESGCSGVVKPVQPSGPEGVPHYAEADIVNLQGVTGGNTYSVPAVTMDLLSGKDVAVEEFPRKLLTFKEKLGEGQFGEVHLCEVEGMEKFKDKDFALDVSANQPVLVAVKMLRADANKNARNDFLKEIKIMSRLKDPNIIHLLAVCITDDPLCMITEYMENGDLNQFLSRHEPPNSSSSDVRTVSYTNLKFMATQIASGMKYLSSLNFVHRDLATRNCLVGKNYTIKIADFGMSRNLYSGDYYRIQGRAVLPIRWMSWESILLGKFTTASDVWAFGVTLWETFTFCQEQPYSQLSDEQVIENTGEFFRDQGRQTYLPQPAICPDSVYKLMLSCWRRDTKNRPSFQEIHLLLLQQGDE
In short: (§1)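 Binding by TR-FRET tracer displacement: compounds incubated 1 h at room temperature with 5 nM DDR1 plus 20 nM Kinase Tracer 178, or 5 nM DDR2 plus 10 nM tracer, and 2 nM Eu anti-GST antibody in pH 7.5 HEPES/MgCl2/EGTA/BRIJ35 buffer. 665/615 nm ratio gave four-parameter IC50, converted to Ki via Cheng-Prusoff.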

DDR1 [1] = molecular target: T2, DDR1 (Homo sapiens, UniProt Q08345); assay: DDR1 LanthaScreen Europium Kinase Binding assay; settings: binding affinity; IC50 converted in Ki using Cheng-Prusoff; read-out: Ki DDR1
T2 sequence (Q08345 19-913): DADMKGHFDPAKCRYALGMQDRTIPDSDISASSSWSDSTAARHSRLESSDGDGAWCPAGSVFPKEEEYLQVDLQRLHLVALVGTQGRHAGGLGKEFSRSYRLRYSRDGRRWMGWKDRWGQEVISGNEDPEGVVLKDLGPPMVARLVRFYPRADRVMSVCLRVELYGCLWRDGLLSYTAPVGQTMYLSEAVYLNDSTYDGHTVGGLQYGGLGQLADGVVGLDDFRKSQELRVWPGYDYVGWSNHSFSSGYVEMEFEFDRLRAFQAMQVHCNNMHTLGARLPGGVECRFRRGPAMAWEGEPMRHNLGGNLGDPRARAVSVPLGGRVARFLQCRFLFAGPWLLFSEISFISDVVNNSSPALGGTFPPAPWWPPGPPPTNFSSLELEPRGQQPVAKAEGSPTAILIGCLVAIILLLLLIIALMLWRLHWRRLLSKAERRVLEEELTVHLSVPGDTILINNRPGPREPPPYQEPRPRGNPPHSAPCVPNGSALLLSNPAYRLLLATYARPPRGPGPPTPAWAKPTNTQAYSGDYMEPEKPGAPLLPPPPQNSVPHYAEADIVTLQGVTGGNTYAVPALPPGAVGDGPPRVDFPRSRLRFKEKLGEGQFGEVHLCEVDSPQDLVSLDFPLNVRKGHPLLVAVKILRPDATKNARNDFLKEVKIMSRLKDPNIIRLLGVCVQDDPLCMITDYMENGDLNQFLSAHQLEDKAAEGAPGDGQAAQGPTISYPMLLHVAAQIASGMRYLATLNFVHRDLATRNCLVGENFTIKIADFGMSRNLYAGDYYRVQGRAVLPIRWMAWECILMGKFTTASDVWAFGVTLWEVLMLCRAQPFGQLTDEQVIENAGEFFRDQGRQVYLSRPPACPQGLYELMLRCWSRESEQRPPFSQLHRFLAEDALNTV
In short: as §1

DDR1 [2] = molecular target: T2, DDR1; assay: DDR1 cell based assay (PathHunter U2OS DDR1, collagen II stimulation); settings: U2OS-DDR1 cells, bovine Type II Collagen stimulation
In short: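 Receptor activation measured by enzyme-fragment complementation luminescence in engineered U2OS cells. Compound added 30 min before overnight challenge with 20 μg/ml bovine collagen II; data scaled between vehicle and collagen-stimulated controls, IC50 derived by four-parameter variable-slope fitting.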

Ki (DDR2) [nM]	Ki (DDR1 [1]) [nM]	IC50 (DDR1 [2]) [nM]	Compound
< 25	< 25	< 25	Cc1n[nH]c2ncc(CN3CCc4ccc(C(=O)Nc5cncc(C(F)(F)F)c5)cc43)cc12 [Example 71, 1-((3-methyl-1H-pyrazolo[3,4-b]pyridin-5-yl)methyl)-N-(5-(trifluoromethyl)pyridin-3-yl)indoline-6-carboxamide]
< 25	< 25	< 25	Cc1n[nH]c2ncc(CN3CCc4ccc(C(=O)Nc5cc(C(=O)N6CCN(C)CC6)cc(C(F)(F)F)c5)cc43)cc12 [Example 74, 1-((3-methyl-1H-pyrazolo[3,4-b]pyridin-5-yl)methyl)-N-(3-(4-methylpiperazine-1-carbonyl)-5-(trifluoromethyl)phenyl)indoline-6-carboxamide]
< 25	< 25	50 to 80	O=C(Nc1cc(OCCN2CCOCC2)cc(C(F)(F)F)c1)c1ccc2c(c1)N(Cc1cnc3cnccn13)CC2 [Example 53, 1-(imidazo[1,2-a]pyrazin-3-ylmethyl)-N-(3-(2-morpholinoethoxy)-5-(trifluoromethyl)phenyl)indoline-6-carboxamide]
< 25	< 25	< 25	CN(C)Cc1c[nH]c2ncc(CN3CCc4ccc(C(=O)Nc5cccc(C(F)(F)F)c5)cc43)cc12 [Example 90, 1-((3-((dimethylamino)methyl)-1H-pyrrolo[2,3-b]pyridin-5-yl)methyl)-N-(3-(trifluoromethyl)phenyl)indoline-6-carboxamide]
< 25	25 to 50	< 25	CC(C)(c1cc(NC(=O)c2ccc3c(c2)N(Cc2cnc4ccccn24)CC3)no1)C(F)(F)F [Example 58, 1-(imidazo[1,2-a]pyridin-3-ylmethyl)-N-(5-(1,1,1-trifluoro-2-methylpropan-2-yl)isoxazol-3-yl)indoline-6-carboxamide]
< 25	< 25	< 25	Cc1n[nH]c2ncc(CN3CCc4ccc(C(=O)Nc5cc(CN6CC[C@@H](N(C)C)C6)nc(C(F)(F)F)c5)cc43)cc12 [Example 84, (R)-N-(2-((3-(dimethylamino)pyrrolidin-1-yl)methyl)-6-(trifluoromethyl)pyridin-4-yl)-1-((3-methyl-1H-pyrazolo[3,4-b]pyridin-5-yl)methyl)indoline-6-carboxamide]
< 25	< 25	50 to 80	CN1CCC(Oc2ccc(NC(=O)c3ccc4c(c3)N(Cc3cnc5cnccn35)CC4)cc2C(F)(F)F)CC1 [Example 54, 1-(imidazo[1,2-a]pyrazin-3-ylmethyl)-N-(4-((1-methylpiperidin-4-yl)oxy)-3-(trifluoromethyl)phenyl)indoline-6-carboxamide]
< 25	< 25	25 to 50	Cn1nc(NC(=O)c2ccc3c(c2)N(Cc2cnc4cnccn24)CC3)cc1C(C)(C)C [Example 87, N-(5-(tert-butyl)-1-methyl-1H-pyrazol-3-yl)-1-(imidazo[1,2-a]pyrazin-3-ylmethyl)indoline-6-carboxamide]
< 25	< 25	50 to 80	CC(C)(C)c1cc(NC(=O)c2ccc3c(c2)N(Cc2cnc4cnccn24)CC3)on1 [Example 79, N-(3-(tert-butyl)isoxazol-5-yl)-1-(imidazo[1,2-a]pyrazin-3-ylmethyl)indoline-6-carboxamide]
< 25	< 25	< 25	CC(C)(C)c1cc(NC(=O)c2ccc3c(c2)N(Cc2cnc4[nH]ncc4c2)CC3)on1 [Example 78, 1-((1H-pyrazolo[3,4-b]pyridin-5-yl)methyl)-N-(3-(tert-butyl)isoxazol-5-yl)indoline-6-carboxamide]
< 25	< 25	50 to 80	O=C(Nc1cc(CN2CCOCC2)cc(C(F)(F)F)c1)c1ccc2c(c1)N(Cc1cnc3cnccn13)CC2 [Example 49, 1-(imidazo[1,2-a]pyrazin-3-ylmethyl)-N-(3-(morpholinomethyl)-5-(trifluoromethyl)phenyl)indoline-6-carboxamide]

The next lines start with the compound.

Compound	Ki (DDR2) [nM]	Ki (DDR1 [1]) [nM]	IC50 (DDR1 [2]) [nM]
Cc1cn(-c2cc(NC(=O)c3ccc4c(c3)N(Cc3ccc5[nH]ncc5c3)CC4)cc(C(F)(F)F)c2)cn1 [Example 8, 1-((1H-indazol-5-yl)methyl)-N-(3-(4-methyl-1H-imidazol-1-yl)-5-(trifluoromethyl)phenyl)indoline-6-carboxamide]	25 to 50	25 to 50	50 to 80
Cc1cn(-c2cc(NC(=O)c3ccc4c(c3)N(Cc3ccc5ccncc5c3)CC4)cc(C(F)(F)F)c2)cn1 [Example 5, 1-(isoquinolin-7-ylmethyl)-N-(3-(4-methyl-1H-imidazol-1-yl)-5-(trifluoromethyl)phenyl)indoline-6-carboxamide]	50 to 80	25 to 50	25 to 50
O=C(Nc1cccc(OC(F)(F)F)c1)c1ccc2c(c1)N(Cc1cnc3cnccn13)CC2 [Example 43, 1-(imidazo[1,2-a]pyrazin-3-ylmethyl)-N-(3-(trifluoromethoxy)phenyl)indoline-6-carboxamide]	< 25	< 25	25 to 50
Cc1cn(-c2cc(NC(=O)c3ccc4c(c3)N(C(=O)c3cnc5ccccn35)CC4)cc(C(F)(F)F)c2)cn1 [Example 12, 1-(imidazo[1,2-a]pyridine-3-carbonyl)-N-(3-(4-methyl-1H-imidazol-1-yl)-5-(trifluoromethyl)phenyl)indoline-6-carboxamide]	< 25	< 25	50 to 80
Cc1cn(-c2cc(NC(=O)c3ccc4c(c3)N(Cc3cnc5ccccn35)CC4C)cc(C(F)(F)F)c2)cn1 (stereo not drawn) [Example 25, 1-(imidazo[1,2-a]pyridin-3-ylmethyl)-3-methyl-N-(3-(4-methyl-1H-imidazol-1-yl)-5-(trifluoromethyl)phenyl)indoline-6-carboxamide]	25 to 50	< 25	25 to 50
Cc1cn(-c2cc(NC(=O)c3ccc4c(c3)N(Cc3cnc5cnccn35)CC4C)cc(C(F)(F)F)c2)cn1 (racemic) [Example 26, 1-(imidazo[1,2-a]pyrazin-3-ylmethyl)-3-methyl-N-(3-(4-methyl-1H-imidazol-1-yl)-5-(trifluoromethyl)phenyl)indoline-6-carboxamide]	< 25	< 25	25 to 50
Cc1cn(-c2cc(NC(=O)c3ccc4c(c3)N(C(=O)c3cnc5cnccn35)CC4)cc(C(F)(F)F)c2)cn1 [Example 13, 1-(imidazo[1,2-a]pyrazine-3-carbony1)-N-(3-(4-methyl-1H-imidazol-1-y1)-5-(trifluoromethyl)phenyl)indoline-6-carboxamide]	< 25	< 25	50 to 80
CN1CCN(Cc2cc(NC(=O)c3ccc4c(c3)N(C(=O)c3cnc5cnccn35)CC4)cc(C(F)(F)F)c2)CC1 [Example 15, 1-(imidazo[1,2-a]pyrazine-3-carbonyl)-N-(3-((4-methylpiperazin-1-yl)methyl)-5-(trifluoromethyl)phenyl)indoline-6-carboxamide]	< 25	< 25	50 to 80
CN1CCN(Cc2cc(NC(=O)c3ccc4c(c3)N(Cc3cnc5cnccn35)CC4)cc(C(F)(F)F)c2)CC1 [Example 10, 1-(imidazo[1,2-a]pyrazin-3-ylmethyl)-N-(3-((4-methylpiperazin-1-yl)methyl)-5-(trifluoromethyl)phenyl)indoline-6-carboxamide]	< 25	< 25	25 to 50
